In patent US9181199B2, “Uracil derivatives and use thereof” (RESprotect GmbH, priority 2008, dated 2015):

| SMILES | melting point |
| --- | --- |
| C[Si](C)(C)C#Cc1cn(Cc2ccccc2)c(=O)[nH]c1=O | 213 to 215 °C |
| O=c1c(C=CBr)cn(C(c2ccccc2)c2ccccc2)c(=O)n1Cc1ccccc1 [compound A, 1-Benzhydryl-3-benzyl-5-(2-bromovinyl)uracil] | 131 °C |
| O=c1[nH]c(=O)n(Cc2ccccc2)cc1C=CBr [compound B, 1-Benzyl-5-(2-bromovinyl)uracil] | 183 °C |
| C=CCn1cc(C=CBr)c(=O)[nH]c1=O [compound C, 1-Allyl-5-(2-bromovinyl)uracil] | 137 °C |
| O=c1[nH]c(=O)n(Cc2ccccc2)cc1C#CBr [compound D, 1-Benzyl-5-bromoethynyluracil] | 162 to 165 °C |
| O=c1[nH]c(=O)n(C(c2ccccc2)c2ccccc2)cc1-c1c[nH]nn1 [compound F, 1-Benzhydryl-5-(1H-1,2,3-triazol-4-yl)uracil] | 165 °C |
| N#CC=Cc1cn(C(c2ccccc2)c2ccccc2)c(=O)[nH]c1=O [compound G, 1-Benzhydryl-5-(2-cyanovinyl)uracil] | 261 °C |

Other lines, results leading:

| melting point | SMILES |
| --- | --- |
| 154 to 156 °C | C=CCn1cc(C=C(Br)Br)c(=O)[nH]c1=O [compound H, 1-Allyl-5-(2,2-dibromovinyl)uracil] |
| 164 to 168 °C | C=CCn1cc(C#CBr)c(=O)[nH]c1=O [compound I, 1-Allyl-5-bromoethynyluracil] |
| 205 to 206 °C | O=c1[nH]c(=O)n(Cc2ccccc2)cc1C=C(Br)Br [compound L, 1-Benzyl-5-(2,2-dibromovinyl)uracil] |
| 179 to 183 °C | CC(c1ccccc1)n1cc(C=C(Br)Br)c(=O)[nH]c1=O (stereo not shown) [compound M, 1-(1-Phenylethyl)-5-(2,2-dibromovinyl)uracil] |
| 163 to 167 °C | CC(c1ccccc1)n1cc(C#CBr)c(=O)[nH]c1=O (stereo not shown) [compound N, 1-(1-Phenylethyl)-5-bromoethynyluracil] |
| 190 to 193 °C | C#Cc1cn(Cc2ccccc2)c(=O)[nH]c1=O [compound R, 1-Benzyl-5-ethynyluracil] |
